The values below come from patent publication US9028845B2, “Chimeric immunomodulatory compounds and methods of using the same-IV” (Dynavax Technologies Corporation, priority 2001, dated 2015).

The test system of the series is human PBMCs. Briefly: Human PBMC cytokine response assay (IFN-γ and IFN-α in cell-free medium by ELISA), with or without cPLGA.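 As to IFN-α (pg/ml) mean: 20 µg/mL compound for 24 hours.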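 As to IFN-γ (pg/ml) mean: 20 µg/mL compound for 24 hours.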 In kind it is cell-based. The following applies: for immunomodulatory activity (IFN-γ / IFN-α secretion), in words: used alone (no cPLGA). (An ELISA detects its analyte on a solid surface through an enzyme-linked reagent.)
[1] abbreviates: mean of donors 28185-28188, Table 15.
Where [2] appears, read: Example 58, 0.8 ug/ml, mean of four individuals.
Setting [3] is: Example 58, 4 ug/ml, mean of four individuals.
Setting [4] is: Example 58, 20 ug/ml, mean of four individuals.
The mark [5] stands for this setting: Table 24, mean of donors 28234-28237.
Where [6] appears, read: Table 25, mean of donors 28250-28253.
Setting [7] is: mean of donors 110, 112, 119, 120, Table 14.

“Also recorded” adds a separate entry of the source.

In the case of “5′-TCG-3′-HEG-5′-TCG-3′-HEG-5′-TCG-3′-HEG-5′-TCG-3′-HEG-5′-TCG-3′-HEG-5′-TCG-3′ [Compound C-32]”, the “activity when formulated with cPLGA, in words” value is “more activity when formulated with cPLGA; also recorded: induced considerable IFN-γ and IFN-α when formulated with cPLGA”; the “immunomodulatory activity (IFN-γ / IFN-α secretion), in words” value is given as “had activity when used alone”. Where the note is “Table 9, donor 28089”, the IFN-α stood at 285 pg/mL and the IFN-γ came out at 0 pg/mL. In addition, where the note is “Table 9, donor 28090”, the IFN-α stood at 31 pg/mL and the IFN-γ turned out to be 5 pg/mL. Under “Table 9, donor 28098”, this substance had an IFN-α of 46 pg/mL and an IFN-γ of 11 pg/mL. Moreover, under “Table 9, donor 28099”, the IFN-α was found to be 59 pg/mL and the IFN-γ turned out to be 35 pg/mL. Also, for the setting “Table 9, mean of donors”, the IFN-α mean amounted to 106 pg/mL and the IFN-γ mean came to 13 pg/mL. For the setting “Table 10, donor 28042”, this substance had an IFN-α of 0 pg/mL and an IFN-γ of 91 pg/mL. Further, under “Table 10, donor 28043”, the IFN-α worked out at 0 pg/mL and the IFN-γ was 19 pg/mL. Besides, where the note is “Table 10, donor 28044”, the IFN-α is 8 pg/mL and the IFN-γ was 78 pg/mL. For the setting “Table 10, donor 28045”, this substance returned an IFN-α of 0 pg/mL and an IFN-γ of 17 pg/mL. For the setting “Table 10, mean of donors”, this substance registered an IFN-α mean of 2 pg/mL and an IFN-γ mean of 51 pg/mL.

With “5′-TCGTCG-3′-HEG-5′-ACGTTCG-3′-HEG-5′-AGATGAT-3′-TEG [Compound C-29]”, the IFN-α runs as follows: (Table 9, donor 28089) 75 pg/mL; (Table 9, donor 28090) 92 pg/mL; (Table 9, donor 28098) 359 pg/mL; (Table 9, donor 28099) 332 pg/mL. The substance further had an IFN-γ (Table 9, donor 28089) of 63 pg/mL; an IFN-γ (Table 9, donor 28090) of 50 pg/mL; an IFN-γ (Table 9, donor 28098) of 150 pg/mL; an IFN-γ (Table 9, donor 28099) of 177 pg/mL. The same substance had an IFN-α mean (Table 9, mean of donors) of 214 pg/mL. The IFN-γ mean (Table 9, mean of donors) was determined as 110 pg/mL.

As for “5′-TGCTGCA-3′-C3-5′-AGCTTGC-3′-C3-5′-AGATGAT-3′ (No CG) [Compound C-86]”, the “IFN-a” value stood at 7 pg/mL (donor 28185, Table 15); 4 pg/mL (donor 28186, Table 15); 4 pg/mL (donor 28187, Table 15); 31 pg/mL (donor 28188, Table 15). Also, the “IFN-g” value (donor 28185, Table 15) amounted to 1 pg/mL; the “IFN-g” value (donor 28186, Table 15) turned out to be 4 pg/mL; the “IFN-g” value (donor 28187, Table 15) is 30 pg/mL; the “IFN-g” value (donor 28188, Table 15) was 5 pg/mL. For the same substance, under setting [1], the “IFN-a (pg/ml) mean” value amounted to 11 pg/mL. In addition, under setting [1], the “IFN-g (pg/ml) mean” value worked out at 10 pg/mL. Further, for the setting “mean ×2, Table 15”, the “IFN-a (pg/ml) ×2” value came out at 22 pg/mL. The “IFN-g (pg/ml) ×4” value (mean ×4, Table 15) came out at 40 pg/mL.

With “(5′-TAGTCAT-3′-HEG)2-glycerol-HEG-5′-AACCTTC-3′ [Compound M-3, reference compound]”, the IFN-α reads like this: (Example 58, 0.8 ug/ml, donor 1) 52 pg/mL; (Example 58, 0.8 ug/ml, donor 2) 52 pg/mL; (Example 58, 0.8 ug/ml, donor 3) 52 pg/mL; (Example 58, 0.8 ug/ml, donor 4) 52 pg/mL; (Example 58, 4 ug/ml, donor 1) 52 pg/mL; (Example 58, 4 ug/ml, donor 2) 52 pg/mL. Moreover, the IFN-α is 52 pg/mL (Example 58, 4 ug/ml, donor 3); 52 pg/mL (Example 58, 4 ug/ml, donor 4); 52 pg/mL (Example 58, 20 ug/ml, donor 1); 52 pg/mL (Example 58, 20 ug/ml, donor 2); 52 pg/mL (Example 58, 20 ug/ml, donor 3); 52 pg/mL (Example 58, 20 ug/ml, donor 4). In addition, the IFN-α was 102 pg/mL (Example 59, 0.8 ug/ml, donor 48); 102 pg/mL (Example 59, 0.8 ug/ml, donor 177); 102 pg/mL (Example 59, 0.8 ug/ml, donor 272); 102 pg/mL (Example 59, 0.8 ug/ml, donor 273); 102 pg/mL (Example 59, 4 ug/ml, donor 48); 102 pg/mL (Example 59, 4 ug/ml, donor 177). The IFN-α is, setting by setting: (Example 59, 4 ug/ml, donor 272) 102 pg/mL; (Example 59, 4 ug/ml, donor 273) 102 pg/mL; (Example 59, 20 ug/ml, donor 48) 102 pg/mL; (Example 59, 20 ug/ml, donor 177) 102 pg/mL; (Example 59, 20 ug/ml, donor 272) 102 pg/mL; (Example 59, 20 ug/ml, donor 273) 102 pg/mL. The IFN-α mean is, setting by setting: under setting [2], 52 pg/mL; under setting [3], 52 pg/mL; under setting [4], 52 pg/mL; (Example 59, 0.8 ug/ml, mean of four donors) 102 pg/mL; (Example 59, 4 ug/ml, mean of four donors) 102 pg/mL; (Example 59, 20 ug/ml, mean of four donors) 102 pg/mL.

For “(5′-TCGAACGTTCGA-3′ (SEQ ID NO: 155)-HEG)2-glycerol-HEG-3′-AGCTTGCAAGCT-5′ (SEQ ID NO: 155) (DNA, all phosphorothioate, methylation of C not given here; Three DNA copies joined by HEG spacers and glycerol branching, one copy inverted) [Compound C-174]”, the IFN-α is, setting by setting: (Example 58, 0.8 ug/ml, donor 1) 7907 pg/mL; (Example 58, 0.8 ug/ml, donor 2) 11198 pg/mL; (Example 58, 0.8 ug/ml, donor 3) 998 pg/mL; (Example 58, 0.8 ug/ml, donor 4) 1752 pg/mL; (Example 58, 4 ug/ml, donor 1) 5601 pg/mL; (Example 58, 4 ug/ml, donor 2) 7845 pg/mL. The IFN-α runs as follows: (Example 58, 4 ug/ml, donor 3) 1016 pg/mL; (Example 58, 4 ug/ml, donor 4) 5895 pg/mL; (Example 58, 20 ug/ml, donor 1) 1350 pg/mL; (Example 58, 20 ug/ml, donor 2) 1176 pg/mL; (Example 58, 20 ug/ml, donor 3) 61 pg/mL; (Example 58, 20 ug/ml, donor 4) 837 pg/mL. In addition, the IFN-α mean stood at 5464 pg/mL under setting [2], 5089 pg/mL under setting [3] and 856 pg/mL under setting [4]. The “IFN-α from human PBMC compared with parent oligonucleotide P-17, in words” value (low doses (e.g., 0.8 ug/ml), four individuals) is “induce significantly more IFN-α”.

As for “HEG-5′-TCGTCG-3′-HEG-5′-ACGTTCG-3′-HEG-5′-AGATGAT-3′-TEG (phosphodiester linkages) [Compound C-31]”, the “activity when formulated with cPLGA, in words” value was “good activity when formulated with cPLGA” and the “immunomodulatory activity (IFN-γ / IFN-α secretion), in words” value is “inactive as a CIC alone”. Under “Table 9, donor 28089”, this substance returned an IFN-α of 158 pg/mL and an IFN-γ of 0 pg/mL. In addition, where the note is “Table 9, donor 28090”, the IFN-α was 26 pg/mL and the IFN-γ came to 0 pg/mL. Under “Table 9, donor 28098”, the IFN-α came to 62 pg/mL and the IFN-γ came to 0 pg/mL. Under “Table 9, donor 28099”, this substance registered an IFN-α of 29 pg/mL and an IFN-γ of 2 pg/mL. Moreover, where the note is “Table 9, mean of donors”, the IFN-α mean is 69 pg/mL and the IFN-γ mean was found to be 0 pg/mL.

Regarding “5′-TCGACGT-3′-HEG-5′-TCGACGT-3′-HEG-5′-TCGACGT-3′ [Compound C-51]”, the “immunomodulatory activity (IFN-γ / IFN-α secretion), in words” value is recorded as “more active than other CG-containing CICs”. Besides, the “IFN-α induced relative to C-90 (C3 CIC)” value (HEG CIC vs C3 CIC) stood at 8 fold. Under “Table 10, donor 28042”, this substance gave an IFN-α of 112 pg/mL and an IFN-γ of 795 pg/mL. Under “Table 10, donor 28043”, this substance yielded an IFN-α of 245 pg/mL and an IFN-γ of 1349 pg/mL. Where the note is “Table 10, donor 28044”, this substance came in with an IFN-α of 240 pg/mL and an IFN-γ of 1114 pg/mL. Besides, for the setting “Table 10, donor 28045”, the IFN-α was 36 pg/mL and the IFN-γ is 411 pg/mL. In addition, where the note is “Table 10, mean of donors”, the IFN-α mean was determined as 158 pg/mL and the IFN-γ mean was found to be 917 pg/mL. For the setting “Table 24, donor 28234”, this substance returned an IFN-α of 16 pg/mL and an IFN-γ of 17 pg/mL. Moreover, where the note is “Table 24, donor 28235”, the IFN-α amounted to 77 pg/mL and the IFN-γ came to 123 pg/mL. Moreover, where the note is “Table 24, donor 28236”, the IFN-α came to 352 pg/mL and the IFN-γ came out at 193 pg/mL. Further, where the note is “Table 24, donor 28237”, the IFN-α came to 3798 pg/mL and the IFN-γ was found to be 1580 pg/mL. Under setting [5], this substance gave an IFN-α mean of 1061 pg/mL and an IFN-γ mean of 478 pg/mL. This substance also had an IFN-a (Table 25, donor 28250) of 181 pg/mL. Besides, the IFN-g (Table 25, donor 28250, polynucleotides/spacers at amounts equivalent to the CIC, spacers alone 9 uM) came out at 135 pg/mL. Where the note is “Table 25, donor 28251”, this substance yielded an IFN-a of 246 pg/mL and an IFN-g of 45 pg/mL. For the setting “Table 25, donor 28252”, this substance registered an IFN-a of 95 pg/mL and an IFN-g of 164 pg/mL. Further, for the setting “Table 25, donor 28253”, the IFN-a was 1226 pg/mL and the IFN-g was 167 pg/mL. Under setting [6], the IFN-a mean amounted to 437 pg/mL and the IFN-g mean came out at 128 pg/mL. For the same substance, where the note is “donor 110, Table 14”, the “IFN-α” value was 1408 pg/mL and the “IFN-γ” value came to 1528 pg/mL. Under “donor 112, Table 14”, the “IFN-α” value is 72 pg/mL and the “IFN-γ” value was 240 pg/mL. In addition, under “donor 119, Table 14”, the “IFN-α” value came to 2200 pg/mL and the “IFN-γ” value is 52 pg/mL. Where the note is “donor 120, Table 14”, the “IFN-α” value came out at 622 pg/mL and the “IFN-γ” value was 40 pg/mL. Besides, under setting [7], the “IFN-α (pg/ml) mean” value was determined as 1076 pg/mL and the “IFN-γ (pg/ml) mean” value was 465 pg/mL. Also, under “used alone”, the “IFN-α induction, in words” value is “generated more IFN-α than CICs containing a 5′-TCGT-3′” and the “IFN-γ induction, in words” value is “similar”.
